# PubChem BioAssay (NCI)
# “And” between values parts separate entries of the source, which are not always exact repeats. Identical values can stand only once.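 In this assay, cells in 96-well plates receive the compound at five concentrations for 48 hours. Endpoints are linearly interpolated between the surrounding concentrations. GI50 = concentration required for 50% inhibition of growth. Definition used: TGI = concentration required for complete inhibition of growth.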
# Tests used:
# Experiment in all cases: NCI anticancer screen, dose series, 48 h
# HCC-2998 colon = tested on: HCC-2998 colon
# RXF 393 renal = tested on: RXF 393 renal
# MALME-3M melanoma = tested on: MALME-3M melanoma
# OVCAR-4 ovarian = tested on: OVCAR-4 ovarian
# A549 NSCLC = tested on: A549 NSCLC
# SNB-75 CNS = tested on: SNB-75 CNS
# MOLT-4 leukemia = tested on: MOLT-4 leukemia
# HT29 colon = tested on: HT29 colon
# A498 renal = tested on: A498 renal
# CCRF-CEM leukemia = tested on: CCRF-CEM leukemia
Compound,TGI (HCC-2998 colon),TGI (RXF 393 renal),TGI (MALME-3M melanoma),TGI (OVCAR-4 ovarian),TGI (A549 NSCLC),TGI (SNB-75 CNS),TGI (MOLT-4 leukemia),TGI (HT29 colon),TGI (A498 renal),TGI (CCRF-CEM leukemia),GI50 (HCC-2998 colon),GI50 (RXF 393 renal),GI50 (MALME-3M melanoma),GI50 (OVCAR-4 ovarian),GI50 (SNB-75 CNS),GI50 (MOLT-4 leukemia),GI50 (HT29 colon),GI50 (A498 renal),GI50 (CCRF-CEM leukemia),GI50 (A549 NSCLC)
c1cc2c(cnc3cscc32)s1,> 100 µM,> 100 µM,> 100 µM,> 100 µM,> 100 µM,> 100 µM,> 100 µM,> 100 µM,> 100 µM,> 100 µM,,,,,,,,,,
Cc1c2ncccc2c(C)c2c1[nH]c1ccccc12,25.7 µM,25.9 µM,30.6 µM,43.4 µM,21.1 µM,22.6 µM,6.5 µM,25.7 µM,25.2 µM,35.3 µM,,,,,,,,,,
CC(SC1=CC(=O)c2c(O)ccc(O)c2C1=O)C(=O)O (stereo not given),> 100 µM,> 64.4 µM,> 64.6 µM,35 µM,> 100 µM,> 75.9 µM,60.7 µM,> 100 µM,> 100 µM,14.8 µM,,,,,,,,,,
CCC(=O)N1C/C(=C/c2ccc(OC)cc2)C(=O)/C(=C/c2ccc(OC)cc2)C1,3.42 µM,3.17 µM,6.26 µM,> 100 µM,,> 100 µM,> 100 µM,4.13 µM,3.51 µM,8.31 µM,1.93 µM,1.72 µM,2.47 µM,3.37 µM,5.91 µM,3.31 µM,1.18 µM,1.92 µM,1.75 µM,
CC[C@@]1(OC(=O)CCC(=O)O)C(=O)OCc2c1cc1n(c2=O)Cc2cc3ccccc3nc2-1,4.29 µM,1.53 µM,6.78 µM,13.3 µM,5.54 µM,2.54 µM,0.163 µM,> 33.6 µM,1.27 µM,0.127 µM,,,,,,,,,,
CCc1ccc(C2=C(O)C(=O)C(c3ccc(CC)cc3)=C(O)C2=O)cc1,5.75 µM,12.8 µM,5.4 µM,7.75 µM,10.4 µM,4.19 µM,4.15 µM,7.79 µM,5.36 µM,5.72 µM,2.09 µM,3.34 µM,1.28 µM,2.18 µM,1.37 µM,1.81 µM,2.34 µM,1.74 µM,1.37 µM,2.74 µM
C=C(CNCCO)[C@@H]1CC[C@]2(CO)CC[C@]3(C)[C@H](CC[C@@H]4[C@@]5(C)CCC(NCCc6ccc(O)cc6)C(C)(C)[C@@H]5CC[C@]43C)[C@@H]12 (stereo not given in full),1.43 µM,2.39 µM,3.13 µM,3 µM,2.74 µM,2.63 µM,1.36 µM,0.763 µM,2.81 µM,2.68 µM,0.355 µM,1.08 µM,1.59 µM,1.44 µM,1.31 µM,0.339 µM,0.263 µM,1.46 µM,0.5 µM,1.43 µM
O=C1C=C(c2cc(Br)c(O)c(Br)c2)/C(=C/c2cc(Br)c(O)c(Br)c2)O1,> 75 µM,23.6 µM,> 75 µM,> 75 µM,49.3 µM,> 75 µM,51.9 µM,> 75 µM,57.2 µM,73.8 µM,56.1 µM,1.82 µM,41.5 µM,50.4 µM,39 µM,18.4 µM,39.2 µM,20.1 µM,7.38 µM,11.2 µM
CCCN(CCCCC(NC(C)=O)C(=O)NCc1ccccc1)C(=O)NC (stereo not given),> 100 µM,> 100 µM,> 100 µM,> 100 µM,> 100 µM,> 100 µM,> 100 µM,> 100 µM,> 100 µM,> 100 µM,,,,,,,,,,
CC(=O)O/C(C)=C\C(=O)O/N=C(\N)c1ccc(C)cc1,> 100 µM,99.3 µM,71.5 µM,64.5 µM,> 100 µM,61 µM,> 100 µM,> 100 µM,> 100 µM,41.5 µM,,,,,,,,,,
O=C(N=Nc1c(O)[nH]c2ccccc12)c1ccccc1O,> 100 µM,> 100 µM,> 100 µM,> 100 µM,> 100 µM,94.2 µM,> 100 µM,> 100 µM,94.6 µM,> 100 µM,,,,,,,,,,
O=Nc1c2cccnc2n2nnc3ccc(Cl)cc3c12,4.95 µM,1.64 µM,4.95 µM,3.86 µM,23.8 µM,11.4 µM,1.49 µM,14.5 µM,10.3 µM,2.76 µM,1.72 µM,0.65 µM,1.57 µM,0.98 µM,3.19 µM,0.0476 µM,1.27 µM,3.34 µM,0.0452 µM,3.98 µM
COC(=O)c1ccc2c(c1)c1c(C)c3cnccc3c(C)c1n2C,3.85 µM,0.286 µM,0.314 µM,0.531 µM,0.658 µM,0.563 µM,3.13 µM,1.4 µM,0.166 µM,13.8 µM,0.137 µM,0.0512 µM,0.0615 µM,0.0839 µM,0.072 µM,0.0468 µM,0.0418 µM,0.0348 µM,0.103 µM,0.0615 µM
CC(O)C(NC(=O)C(CS)NC(=O)C(CO)NC(=O)C(CCCCN)NC(=O)C(Cc1c[nH]c2ccccc12)NC(=O)C(Cc1ccc(O)cc1)NC(=O)C(CS)NC(=O)C(N)Cc1ccccc1)C(N)=O (stereo not given),> 25 µM and 57.7 µM,> 25 µM and 36.6 µM,> 25 µM,> 25 µM and 94.8 µM,> 25 µM and 51.6 µM,62.5 µM,> 25 µM and 67.4 µM,> 25 µM and 61.4 µM,> 25 µM and 61.7 µM,> 25 µM and 43.3 µM,,14.5 µM,,26.6 µM,,,,,19.7 µM,18.7 µM
CCCCCCCCCCCCC(SCCNC(=O)CCNC(=O)C(O)C(C)(C)COP(=O)(O)OP(=O)(O)OCC1OC(n2cnc3c(N)ncnc32)C(O)C1OP(=O)(O)O)C(=O)NCC(N)=O (stereo not given),> 100 µM,> 100 µM,> 100 µM,> 100 µM,> 100 µM,9.04 µM,,> 100 µM,> 100 µM,> 100 µM,,,,,,,,,,
CCc1cccc(C)c1NC(=O)CC1Sc2ccccc2NC1=O (stereo not given),81.2 µM,73.7 µM,> 100 µM,> 100 µM,> 100 µM,75 µM,> 100 µM,,72.8 µM,> 100 µM,,,,,,,,,,
